Laboratory results published in ChEMBL document CHEMBL4321793, “Can Cysteine Protease Cross-Class Inhibitors Achieve Selectivity?” (J Med Chem, 2019).

Assays:
Rhodesain = Rhodesain (Trypanosoma brucei rhodesiense, UniProt Q95PM0); assay: Inhibition of Trypanosoma brucei rhodesiense rhodesain
Procathepsin L [1] = biological target: T1, Procathepsin L (Homo sapiens, UniProt P07711); assay: Inhibition of human cathepsin L
Cruzipain = Cruzipain (Trypanosoma cruzi, UniProt P25779); assay: Reversible inhibition of Trypanosoma cruzi cruzipain
Sequence of Cruzipain (P25779 whole entry): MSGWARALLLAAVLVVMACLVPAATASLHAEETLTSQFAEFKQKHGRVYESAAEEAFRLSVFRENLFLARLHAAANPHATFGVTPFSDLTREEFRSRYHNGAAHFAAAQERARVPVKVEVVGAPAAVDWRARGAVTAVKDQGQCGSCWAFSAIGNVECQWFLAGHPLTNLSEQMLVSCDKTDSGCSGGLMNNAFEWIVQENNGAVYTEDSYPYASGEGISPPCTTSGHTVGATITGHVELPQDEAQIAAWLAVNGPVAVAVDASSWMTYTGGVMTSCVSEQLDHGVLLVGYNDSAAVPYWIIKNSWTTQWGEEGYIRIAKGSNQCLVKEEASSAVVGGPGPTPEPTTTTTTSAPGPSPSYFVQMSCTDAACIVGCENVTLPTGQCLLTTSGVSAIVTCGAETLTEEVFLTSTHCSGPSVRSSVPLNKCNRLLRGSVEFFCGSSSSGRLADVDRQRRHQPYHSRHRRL

Procathepsin L [2] = biological target: T1, Procathepsin L; assay: Reversible inhibition of human cathepsin L
[3] = test system: human cathepsin B versus Trypanosoma cruzi cruzipain; assay: Selectivity ratio of IC50 for reversible inhibition of human cathepsin B to IC50 for reversible inhibition of Trypanosoma cruzi cruzipain; assay type: toxicity; settings: read-out: Ratio IC50
[4] = test system: human cathepsin L versus Trypanosoma cruzi cruzipain; assay: Selectivity ratio of IC50 for reversible inhibition of human cathepsin L to IC50 for reversible inhibition of Trypanosoma cruzi cruzipain; assay type: toxicity; settings: read-out: Ratio IC50
Cathepsin B = Cathepsin B (Homo sapiens, UniProt P07858); assay: Reversible inhibition of human cathepsin B

T1 sequence (P07711 whole entry): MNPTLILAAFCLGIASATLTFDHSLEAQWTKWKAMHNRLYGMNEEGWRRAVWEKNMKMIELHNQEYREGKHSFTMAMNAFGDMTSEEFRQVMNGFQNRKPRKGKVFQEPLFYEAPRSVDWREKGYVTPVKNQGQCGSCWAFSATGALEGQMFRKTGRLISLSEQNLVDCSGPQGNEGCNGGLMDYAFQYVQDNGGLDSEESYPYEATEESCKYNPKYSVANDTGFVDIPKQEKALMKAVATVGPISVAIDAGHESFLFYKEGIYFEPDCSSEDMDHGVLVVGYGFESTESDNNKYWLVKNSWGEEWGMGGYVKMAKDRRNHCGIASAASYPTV
Sequence of Rhodesain (Q95PM0 whole entry): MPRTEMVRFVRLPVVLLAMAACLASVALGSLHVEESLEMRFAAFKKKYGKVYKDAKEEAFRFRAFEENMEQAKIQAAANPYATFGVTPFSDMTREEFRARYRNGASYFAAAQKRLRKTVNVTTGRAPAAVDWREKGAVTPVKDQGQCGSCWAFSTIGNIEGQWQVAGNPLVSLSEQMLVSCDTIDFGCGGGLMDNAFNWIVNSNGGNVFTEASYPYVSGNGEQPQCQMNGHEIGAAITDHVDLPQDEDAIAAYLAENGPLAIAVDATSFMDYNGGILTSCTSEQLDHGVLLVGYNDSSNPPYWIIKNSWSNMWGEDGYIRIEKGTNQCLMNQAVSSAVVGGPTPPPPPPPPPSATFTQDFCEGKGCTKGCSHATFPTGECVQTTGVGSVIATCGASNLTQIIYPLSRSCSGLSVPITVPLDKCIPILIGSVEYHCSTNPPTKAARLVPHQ

Row | IC50 (Cruzipain) [nM] | IC50 (Procathepsin L [2]) [nM] | IC50 (Cathepsin B) [nM] | Structure (SMILES) | Ki (Rhodesain) [nM] | Ki (Procathepsin L [1]) [nM] | selectivity ratio [3] | selectivity ratio [4]
1 | – | – | – | CCC[C@H]1CC[C@H](N(Cc2ccc3c(c2)OCO3)c2nc(C#N)nc(N3CCOCC3)n2)CC1 | 2 | 690 | – | –
2 | 0.8 | 47 | 1110 | CC(C)(F)C[C@H](N[C@@H](c1ccc(-c2ccc(N3CCNCC3)cc2)cc1)C(F)(F)F)C(=O)NCC#N | – | – | 1390 | 58
3 | – | – | – | N#Cc1nc(N2CCOCC2)nc(N(Cc2ccc3c(c2)OCO3)C2CCCCC2)n1 | – | 33 | – | –
